# Biological target: T1, Protein deacetylase HDAC6 (Homo sapiens) (UniProt Q9UBN7)
# T1 sequence (whole entry): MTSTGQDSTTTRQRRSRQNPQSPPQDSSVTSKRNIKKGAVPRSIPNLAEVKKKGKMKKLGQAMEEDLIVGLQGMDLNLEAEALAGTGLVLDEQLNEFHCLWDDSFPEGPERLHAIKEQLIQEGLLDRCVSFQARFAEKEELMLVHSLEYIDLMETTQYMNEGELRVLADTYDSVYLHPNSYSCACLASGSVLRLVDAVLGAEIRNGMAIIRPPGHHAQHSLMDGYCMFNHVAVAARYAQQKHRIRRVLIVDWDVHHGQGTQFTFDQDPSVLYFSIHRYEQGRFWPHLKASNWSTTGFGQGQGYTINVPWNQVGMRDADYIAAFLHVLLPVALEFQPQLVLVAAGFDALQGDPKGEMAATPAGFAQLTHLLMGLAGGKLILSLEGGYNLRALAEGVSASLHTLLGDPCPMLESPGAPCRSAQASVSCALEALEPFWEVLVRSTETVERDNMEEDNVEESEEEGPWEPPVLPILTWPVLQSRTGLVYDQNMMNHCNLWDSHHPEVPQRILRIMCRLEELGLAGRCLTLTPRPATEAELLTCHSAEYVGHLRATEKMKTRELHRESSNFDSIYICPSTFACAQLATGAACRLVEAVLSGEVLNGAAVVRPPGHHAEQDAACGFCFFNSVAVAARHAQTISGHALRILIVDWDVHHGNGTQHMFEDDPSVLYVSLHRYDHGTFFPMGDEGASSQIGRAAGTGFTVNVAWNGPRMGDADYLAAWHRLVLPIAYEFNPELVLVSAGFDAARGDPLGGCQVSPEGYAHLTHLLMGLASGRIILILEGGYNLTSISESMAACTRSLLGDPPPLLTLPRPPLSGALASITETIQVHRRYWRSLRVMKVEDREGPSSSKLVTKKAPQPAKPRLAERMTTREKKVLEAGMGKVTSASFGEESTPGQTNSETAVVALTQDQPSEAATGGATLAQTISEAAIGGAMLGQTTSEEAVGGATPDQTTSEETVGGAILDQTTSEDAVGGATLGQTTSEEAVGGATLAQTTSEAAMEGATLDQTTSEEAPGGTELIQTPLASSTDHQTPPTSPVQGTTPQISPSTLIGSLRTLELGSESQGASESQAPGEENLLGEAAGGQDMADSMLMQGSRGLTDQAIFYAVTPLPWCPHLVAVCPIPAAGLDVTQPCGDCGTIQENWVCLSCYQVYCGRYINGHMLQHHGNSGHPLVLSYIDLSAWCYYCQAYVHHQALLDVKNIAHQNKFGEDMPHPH
# Details: at 10 µM
row,SMILES,inhibition [%]
1,N#Cc1c(O)c2c(-c3ccc(-c4ccccc4O)cc3)csc2[nH]c1=O,57.7
2,CN(Cc1ccccc1)C(=O)[C@H](Cc1ccc2ccccc2c1)NC(=O)[C@@H]1C[C@@H](O)CN1C(=O)c1cn(C)c2ccccc12,6.39
3,CCN(CC)C(=O)Nc1ccc(OCC(O)CNC(C)(C)C)c(C(C)=O)c1 (configuration not stated),27.1
4,O=C1OC2(c3cc(I)c(O)c(I)c3Oc3c2cc(I)c(O)c3I)c2c(Cl)c(Cl)c(Cl)c(Cl)c21,68.7
5,O=C1Cc2c([nH]c3ccc(Br)cc23)-c2ccccc2N1,96.6
6,CCCn1c(=O)c2[nH]c(-c3cnn(Cc4cccc(C(F)(F)F)c4)c3)nc2n(CC)c1=O,18.7
7,CN(C)Cc1c(C(=O)NCCOc2ccc(C(=O)NO)cc2)oc2ccccc12,102
8,O=C(O)CNC(=O)c1c(O)c2ccccc2n(Cc2ccccc2)c1=O,73.4
9,O=c1c2ccccc2oc2ccccc12,61.8
10,Cc1cc(O)c2c(=O)c3c(O)cc(O)c4c5c(O)cc(O)c6c(=O)c7c(O)cc(C)c8c1c2c(c34)c(c78)c65,66.5
11,OCCOCCN1CCN(C(c2ccccc2)c2ccc(Cl)cc2)CC1 (configuration not stated),-6.68
12,CCCCOC(=O)c1cc2c(cn1)[nH]c1ccccc12,91.6
13,CN1CCN(c2ccc3nc(-c4c(N)c5c(F)cccc5[nH]c4=O)[nH]c3c2)CC1,63
14,O=C(NC1CC1)c1cc(-c2cccs2)on1,70.5
15,N#C/C(=C\c1ccc(O)c(O)c1)C(=O)NCCCc1ccccc1,33.8
16,c1ccc(-c2cnn3cc(-c4ccc(OCCN5CCOCC5)cc4)cnc23)cc1,106
17,Cc1c(-c2ccc(O)cc2)n(Cc2ccc(OCCN3CCCCCC3)cc2)c2ccc(O)cc12,97.7
18,N[C@@H]1CCCN(c2c(/C=C3\SC(=O)NC3=O)cccc2-c2ccccc2)C1,14.4
19,O=C(N/N=C/c1ccccc1O)c1ccccc1O,107
20,C=CC(C)(C)c1cc(/C=C/C(=O)c2ccc(O)cc2)c(OC)cc1O,52.1
21,CCC(CC)(CC(=O)Nc1cccc(/C=C/c2nc(C3CCC3)cs2)c1)C(=O)O,36.2
22,COc1ccc(-c2nc3cc(C4=NNC(=O)CC4C)ccc3[nH]2)cc1 (configuration not stated),97.8

row,SMILES,inhibition [%]
1,COc1ccccc1OCC(O)COC(N)=O (configuration not stated),8.29
2,FC(F)(F)c1cc(NC(=S)Nc2ccc(Br)cc2-c2nnn[nH]2)cc(C(F)(F)F)c1,31.7
3,O=C(O)Cc1ccc2c(c1)C(=O)c1ccccc1CO2,64.3
4,Cn1cc(/C=C2/C(=O)Nc3cccnc32)c2ccccc21,109
5,c1ccc2c(c1)Nc1ccccc1S2,71.8
6,C#C[C@]1(OC(C)=O)CC[C@H]2[C@@H]3CCC4=C/C(=N/O)CC[C@@H]4[C@H]3CC[C@@]21CC,17.1
7,O=C(CCCCCN1C(=O)c2cccc3cccc(c23)C1=O)NO,104
8,Nc1ncnc(Nc2ccc(Cl)cc2)n1,59.8
9,CN1[C@@H]2C[C@@H](O)C[C@H]1[C@@H]1O[C@@H]12,67.9
10,NS(=O)(=O)c1cc2c(cc1C(F)(F)F)NC(Cc1ccccc1)NS2(=O)=O (configuration not stated),36
11,CC1(C)CNc2cc(NC(=O)c3cccnc3NCc3ccncc3)ccc21,78.2
12,c1ccc(CCNc2nc(-c3ccccc3)cs2)cc1,96.5
13,C/N=c1/nc(-c2ccccc2)n(-c2ccccc2)s1,81.7
14,Cc1[nH]cnc1-c1ccc(Cl)cc1,94.8
15,NS(=O)(=O)c1nn2cc(-c3ccccc3)nc2s1,81.9
16,O=C(NCc1ccc2c(c1)OCO2)c1c(Cl)cccc1Cl,17.4
17,COC(=O)Nc1nc2cc(SC(C)C)ccc2[nH]1,87.7
18,Cc1cn([C@H]2C=C[C@@H](CO)O2)c(=O)[nH]c1=O,19.5
19,O=C(CCCCCCNC(=O)c1cnc(N(c2ccccc2)c2ccccc2)nc1)NO,105
20,O=C(/C=C/c1ccc(O)c(O)c1)OCCc1ccccc1,47.2
21,CC(C)Oc1ccc2c(=O)c3cc(C(=O)O)ccc3oc2c1,64.7
22,Cc1nc2ccc(-n3ncc(C(=O)c4cc5ccccc5[nH]4)c3N)cc2[nH]1,112

row,SMILES,inhibition [%]
1,COc1cc(OC)cc(-c2ccc3c(-c4ccc(F)cc4)n[nH]c3n2)c1,47.1
2,CC(C)(C)c1ccc(C(=O)Nc2cn3cc(-n4ccnc4)ccc3n2)cc1,67.2
3,C[C@H](NCc1ccc(OCc2cccc(F)c2)cc1)C(N)=O,84.6
4,Nc1cc2c3ccccc3ccc2c2ccccc12,24.2
5,Cc1cc(Cl)ccc1OCCCC(=O)NO,96.5
6,Cn1ccc2cc(NC(=O)Nc3cccnc3)ccc21,50.6
7,O=C(Nc1ccc(Br)cc1)c1cc(Br)cc(Br)c1O,30.8
8,Cc1ccc(NC(=O)c2ccc(CN3CCN(C)CC3)cc2)cc1Nc1nc(-c2cccnc2)cs1,22.6
9,c1ccc2sc(SNC3CCCCC3)nc2c1,23.2
10,CC(C)(C)C1CCc2c(sc(NC(=O)c3ccco3)c2C(=O)O)C1 (configuration not stated),73.7
11,O=C(OCC(O)CO)c1ccccc1Nc1ccnc2cc(Cl)ccc12 (configuration not stated),83.6
12,Cc1cc(C)c(N)c(C#Cc2cccc(F)c2)n1,74.2
13,CCC(=O)NO,37.4
14,CCCCCCCCCCCCCCCC(=O)N[C@@H](CCC(=O)NCCCC[C@H](NC(=O)[C@H](C)NC(=O)[C@H](C)NC(=O)[C@H](CCC(N)=O)NC(=O)CNC(=O)[C@H](CCC(=O)O)NC(=O)[C@H](CC(C)C)NC(=O)[C@H](Cc1ccc(O)cc1)NC(=O)[C@H](CO)NC(=O)[C@H](CO)NC(=O)[C@@H](NC(=O)[C@H](CC(=O)O)NC(=O)[C@H](CO)NC(=O)[C@@H](NC(=O)[C@H](Cc1ccccc1)NC(=O)[C@@H](NC(=O)CNC(=O)[C@H](CCC(=O)O)NC(=O)[C@H](C)NC(=O)[C@@H](N)Cc1cnc[nH]1)[C@@H](C)O)[C@@H](C)O)C(C)C)C(=O)N[C@@H](CCC(=O)O)C(=O)N[C@@H](Cc1ccccc1)C(=O)N[C@H](C(=O)N[C@@H](C)C(=O)N[C@@H](Cc1c[nH]c2ccccc12)C(=O)N[C@@H](CC(C)C)C(=O)N[C@H](C(=O)N[C@@H](CCCNC(=N)N)C(=O)NCC(=O)N[C@@H](CCCNC(=N)N)C(=O)NCC(=O)O)C(C)C)[C@@H](C)CC)C(=O)O,15.4
15,O=C1Cc2c([nH]c3ccc(Br)cc23)-c2ncccc2N1,92.8
16,O=C(/C=C/c1ccc2c(c1)OCO2)N1CCCCC1,89.8
17,Cc1cc(O)c2c(c1)C(=O)c1cccc(O)c1C2=O,65.1
18,Cc1cc(NCCO)nc(-c2ccc(Br)cc2)n1,64.4
19,O=C(Nc1ccc2[nH]ccc2c1)c1ccccc1,86.3
20,O=C1C(Cl)=C(N2CCOCC2)C(=O)N1c1ccc(Cl)c(Cl)c1,83.8
21,NCCNc1ccc(NCCN)c2c1C(=O)c1ccncc1C2=O,108
22,C[C@@H]1CC(=O)c2c(ccc3c2C(=O)c2cccc(O)c2C3=O)C1,105

row,SMILES,inhibition [%]
1,CC(C)c1ccc2oc3nc(N)c(C(=O)O)cc3c(=O)c2c1,108
2,NS(=O)(=O)c1cc2c(cc1Cl)N=C(CSCc1ccccc1)NS2(=O)=O,42.3
3,CC(C)[C@H](C(=O)Nc1ccc(C(=O)NO)cc1)c1ccccc1,101
4,CN1CCCN=C1/C=C/c1cccs1,42
5,CCOc1ccc(S(=O)(=O)O)c2cccnc12,-1.18
6,COc1ccc(-c2nc(N3CCOCC3)c3sc(CN(C)c4ncc(C(=O)NO)cn4)cc3n2)cn1,104
7,O=C1NC(=O)/C(=C/c2ccc(-c3ccc(F)cc3O)o2)S1,94.9
8,CC(C)OC(=O)Nc1cccc(Cl)c1,73
9,COc1ccc(C2C(=O)c3ccccc3C2=O)cc1,99.8
10,CC(=O)Oc1ccccc1C(=O)Nc1ccccc1,61.5
11,COc1ccc(-c2coc3cc(O)cc(O)c3c2=O)cc1,101
12,CN(C)CC/C=C1\c2ccccc2Sc2ccc(Cl)cc21,94.5
13,COc1ccc(-c2cc(=O)c3c(O)cc(O)cc3o2)cc1O,102
14,Cc1cc(C)c(S(=O)(=O)Nc2cccc(C(F)(F)F)c2)c(C)c1,-5.7
15,COc1ccc(Nc2ccn(-c3ccccc3)n2)cc1,111
16,Cc1c(CN(C)C(=O)/C=C/c2cnc3c(c2)CCC(=O)N3)oc2ccccc12,0.5
17,CCOc1cc(/C=C2/C(=O)N(c3ccccc3)N=C2C)cc(Cl)c1OCC(=O)OC,16.6
18,O=C(/C=C/c1ccccc1)NCCO,50.5
19,CC(C)COC(=O)c1ccc(N)cc1,82.1
20,CCCCc1nc2cc(/C=C/C(=O)NO)ccc2n1CCN(CC)CC,83.5
21,c1cc(Nc2cc(C3CC3)n[nH]2)nc(Nc2ccc3[nH]cnc3c2)n1,66.6
